Data from patent US20070218460A1, “Method of Estimating Toxicity of Drug” (TAKEDA PHARMACEUTICAL COMPANY LIMITED, priority 2003, published 2007).

Tests used:
HepG2 cells [1] = test: Electron-microscopic examination of PLsis induction potential (myelin-like structure)
Description: Using 30 kinds of the following commercially available drugs as test compounds, the level of PLsis induction potential was examined with the emergence of an intracellular myelin-like structure or a structure having a high electron density, which is an early image thereof, as an index by electronmicroscopic observation.
HepG2 cells (purchased from ATCC) were exposed to the test compound by a conventional method. HepG2 cells used were of the cell growth phase. The attached HepG2 cells were washed twice with. Dulbecco's phosphate buffered saline (calcium and magnesium salt free; PBS(−))(Dainippon Pharmaceutical Co., Ltd.) containing 0.05 w/v % EDTA, detached with a cell dissociation solution of 0.25 vol % trypsin-1 mmol/L EDTA (Gibco BRL) diluted 2-fold with PBS(−), centrifuged to remove the supernatant, and adjusted to a concentration of 2×10^5 cells/250 μL with a culture medium [Dulbecco's modified Eagle medium (DMEM)(Gibco BRL) supplemented with 50 U/mL penicillin (Gibco BRL)-[…] streptomycin (Gibco BRL) and 5 vol % FBS (Bio whittaker)]. DMSO alone or a culture medium containing the above-mentioned test compound in DMSO solution was dispensed to a well by 250 μL, the above-mentioned cell suspension (250 μL) was added, and cultured in a CO2 incubator (7100; Napco) under an atmosphere of 5% CO2—95% air at 37° C.
After culture for 72 hr, the culture medium was removed, and the cells were fixed with 1 w/v % glutaraldehyde solution. After fixing with 2 w/v % osmic acid for 2 hr by a conventional method and dehydrating with an alcohol series, the cells were embedded in a resin (Quetol 812). Ultrathin slices were prepared and, after electron staining, observed with an electron microscope (H-300; Hitachi) and photographed in 3 or more pictures per each sample (magnification ×5000). The processing after post-fixation was performed by Applied Medical Research.

HepG2 cells [2] = test: Highest concentration at which cells were viable after 72 hr exposure; assay type: cell-based, human
asah1 = test: Real-time quantitative PCR of PLsis marker gene expression; assay type: cell-based, human; conditions: HepG2 cells, 24 hr exposure, relative value, control group = 1.0, GAPDH internal standard, n=3
Method: (§1) Using RNeasy Mini Kit (QIAGEN), total RNA was purified from the cells, and cDNA was synthesized in a 100 μL system using TaqMan Reverse Transcription Reagents (PE Applied Biosystems).
(§2) As the primer for glyceraldehyde-3-phosphoric acid dehydrogenase (GAPDH) and VIC labeled probe, those attached to TaqMan GAPDH Control Reagents (PE Applied Biosystems) were used.
(§3) Using 100 μL of the reaction mixture containing 5 μL of cDNA (1×TaqMan Universal PCR Master Mix (PE Applied Biosystems), 200 nM forward primer, 200 nM reverse primer and 200 nM TaqMan probe), 40 cycles of (1 cycle=95° C., 15 sec; 60° C., 1 min) PCR were performed. PCR and fluorescence detection were performed using ABI PRISM Sequence Detector 7000 (PE Applied Biosystems). As the internal standard, GAPDH was used to amend the measurement values. For the determination of significant difference, t-test was used (n=3).
(§4) For each test compound, the expression variation rate of 12 genes each relative to the control group was determined.

depp = test: as above; assay type: cell-based, human; conditions: HepG2 cells, 24 hr exposure, relative value, control group = 1.0, GAPDH internal standard, n=3
Method: as §1, §2, §3, §4

fabp1 = test: as above; assay type: cell-based, human; conditions: HepG2 cells, 24 hr exposure, relative value, control group = 1.0, GAPDH internal standard, n=3
Method: as §1, §2, §3, §4

flj22362 = test: as above; assay type: cell-based, human; conditions: HepG2 cells, 24 hr exposure, relative value, control group = 1.0, GAPDH internal standard, n=3
Method: as §1, §2, §3, §4

hpn = test: as above; assay type: cell-based, human; conditions: HepG2 cells, 24 hr exposure, relative value, control group = 1.0, GAPDH internal standard, n=3
Method: as §1, §2, §3, §4

kiaa1001 = test: as above; assay type: cell-based, human; conditions: HepG2 cells, 24 hr exposure, relative value, control group = 1.0, GAPDH internal standard, n=3
Method: as §1, §2, §3, §4

lss = test: as above; assay type: cell-based, human; conditions: HepG2 cells, 24 hr exposure, relative value, control group = 1.0, GAPDH internal standard, n=3
Method: as §1, §2, §3, §4

mgc4171 = test: as above; assay type: cell-based, human; conditions: HepG2 cells, 24 hr exposure, relative value, control group = 1.0, GAPDH internal standard, n=3
Method: as §1, §2, §3, §4

nr0b2 = test: as above; assay type: cell-based, human; conditions: HepG2 cells, 24 hr exposure, relative value, control group = 1.0, GAPDH internal standard, n=3
Method: as §1, §2, §3, §4

serpina3 = test: as above; assay type: cell-based, human; conditions: HepG2 cells, 24 hr exposure, relative value, control group = 1.0, GAPDH internal standard, n=3
Method: as §1, §2, §3, §4

slc2a3 = test: as above; assay type: cell-based, human; conditions: HepG2 cells, 24 hr exposure, relative value, control group = 1.0, GAPDH internal standard, n=3
Method: as §1, §2, §3, §4

tagln = test: as above; assay type: cell-based, human; conditions: HepG2 cells, 24 hr exposure, relative value, control group = 1.0, GAPDH internal standard, n=3
Method: as §1, §2, §3, §4

SMILES	frequency of appearance of myelin-like structure (HepG2 cells [1])	addition concentration (highest concentration at which cells survived after 72 hr of culture) (HepG2 cells [2])	expression variation rate asah1 (asah1)	expression variation rate depp (depp)	expression variation rate fabp1 (fabp1)	expression variation rate flj22362 (flj22362)	expression variation rate hpn (hpn)	expression variation rate kiaa1001 (kiaa1001)	expression variation rate lss (lss)	expression variation rate mgc4171 (mgc4171)	expression variation rate nr0b2 (nr0b2)	expression variation rate serpina3 (serpina3)	expression variation rate slc2a3 (slc2a3)	expression variation rate tagln (tagln)
CC/C(=C(\c1ccccc1)c1ccc(OCCN(C)C)cc1)c1ccccc1 [tamoxifen]	++	8.3 µmol/L	4.50	2.02	1.90	1.53	2.19	1.85	3.01	1.60	2.56	2.12	0.24	0.27
Clc1ccccc1CNCC1CCC(CNCc2ccccc2Cl)CC1 (stereo not shown) [AY-9944]	++	8.3 µmol/L	4.71	3.32	3.16	1.45	2.68	1.68	4.78	1.63	2.71	1.97	0.22	0.21
CNCCC(Oc1ccc(C(F)(F)F)cc1)c1ccccc1 (stereo not shown) [fluoxetine]	+++	8.3 µmol/L	6.55	3.08	2.80	2.15	2.39	1.93	3.51	1.34	2.70	1.73	0.09	0.20
CC[C@H]1OC(=O)[C@H](C)[C@@H](O[C@H]2C[C@@](C)(OC)[C@@H](O)[C@H](C)O2)[C@H](C)[C@@H](O[C@@H]2O[C@H](C)C[C@H](N(C)C)[C@H]2O)[C@](C)(OC)C[C@@H](C)C(=O)[C@H](C)[C@@H](O)[C@]1(C)O [clarithromycin]	−	25 µmol/L	1.55	0.93	0.91	1.00	0.96	1.48	0.65	1.18	0.78	1.39	0.86	0.86
CNS(=O)(=O)Cc1ccc2[nH]cc(CCN(C)C)c2c1 [sumatriptan]	−	25 µmol/L	1.35	1.05	1.01	1.26	1.16	1.34	1.23	0.99	0.63	0.95	0.99	1.06
CSc1ccc2c(c1)N(CCC1CCCCN1C)c1ccccc1S2 (stereo not shown) [thioridazine]	+	8.3 µmol/L	1.36	2.02	5.07	1.57	2.85	5.79	2.03	1.32	0.77	2.46	0.38	0.46
CCCCc1oc2ccccc2c1C(=O)c1cc(I)c(OCCN(CC)CC)c(I)c1 [amiodarone]	++	8.3 µmol/L	1.69	1.12	2.01	1.07	2.15	1.56	1.82	1.32	1.35	1.17	0.35	0.56
CN(C)CCC=C1c2ccccc2CCc2ccccc21 [amitriptyline]	+++	25 µmol/L	3.10	5.08	2.39	1.80	2.20	2.11	1.79	2.22	1.64	3.01	0.22	0.23
